From patent publication US7638306B2, “Process of increasing cellular production of biologically active compounds” (Fermalogic, Inc., priority 2003, dated 2009)
Counter-ions that a name gives are not always drawn.

Assays:
wild type A. erythreum = experiment: growth inhibition of wild type A. erythreum by kanamycin; type: cell-based, Aeromicrobium erythreum
[1] = system: A. erythreum mutants containing the aph1 gene; settings: aphI (aph1) gene from Tn903 expressed in A. erythreum
Text: E. coli library of A. erythreum genomic DNA. The plasmid library was constructed in the A. erythreum integration vector pFL2082, a pUC19-derived vector containing the aphI gene from Tn903. […] Several different vector preparations were dephosphorylated with different concentrations of CIAP or SAP in order to obtain the highest ratio of white to blue colonies after ligation. […] To generate a library that represented in excess of 5-fold coverage of the chromosome (estimated A. erythreum genome size somewhere between 4-8 Mb, representing about 4,000-8,000 coding sequences), 100,000 white colonies were harvested into 25 pools. This large number of colonies was chosen based on the assumption that some genes will be disproportionately represented over others after selection in E. coli. The colonies were split among 25 pools (ca. 4,000 colonies/pool) to increase randomness. To determine the insert size of random plasmid isolates a total of 65 white colonies were analyzed by restriction analysis of their plasmid DNA. […] This library was designated A. erythreum genomic library or library 1.
To generate a gene replacement library we developed a rapid, simple visual screen that took advantage of the Kn^r phenotype of single crossover mutants and the Kn^s phenotype of gene replacement mutants. […]

Row | Structure (SMILES) | kanamycin concentration to which A. erythreum is sensitive (growth inhibited) (wild type A. erythreum) [µg/mL] | kanamycin concentration up to which resistance is conferred with good growth [1] [µg/mL]
1 | NC[C@H]1O[C@H](O[C@H]2[C@H](O)[C@@H](O[C@H]3O[C@H](CO)[C@@H](O)[C@H](N)[C@H]3O)[C@H](N)C[C@@H]2N)[C@H](O)[C@@H](O)[C@@H]1O [Kanamycin sulfate] | ≥ 5 | 
2 | NC[C@H]1O[C@H](O[C@H]2[C@H](O)[C@@H](O[C@H]3O[C@H](CO)[C@@H](O)[C@H](N)[C@H]3O)[C@H](N)C[C@@H]2N)[C@H](O)[C@@H](O)[C@@H]1O [kanamycin] | ≥ 2 | 10 to 15
